Measured values taken from patent US20250026741A1, “INHIBITORS OF THE ONCOGENIC SHP2 PHOSPHATASE AND USES THEREOF” (Sanford Burnham Prebys Medical Discovery Institute, priority 2021, published 2025).

What was measured:
Format in all cases: biochemical
[1] = molecular target: full-length SHP2-E76K oncogenic mutant (Homo sapiens (Human), UniProt Q06124, E76K); assay: DiFMUP fluorescence intensity phosphatase inhibition assay, SHP2-E76K; details: DiFMUP at Km (20 μM), 10-point dose-response; read-out: SHP2-E76K IC50
Source text: (§1) To test the synthesized compounds for their potential to inhibit SHP2 activity, a fluorescence intensity-based assay using 6,8-difluoro-4-methylumbelliferyl phosphate (DiFMUP) as the substrate was adapted for three recombinant SHP2 constructs: 1) the SHP2 catalytic domain (SHP2cat; residues 248-527), 2) the full-length SHP2-E76K oncogenic mutant, and 3) the full-length SHP2 wild-type (SHP2-WT). The recombinant SHP2 proteins were expressed and purified. A dually phosphorylated peptide derived from the insulin receptor substrate 1 (IRS-1) served as a surrogate binding protein and was used to activate SHP2-WT. […] Michaelis-Menten experiments to determine the DiFMUP Michaelis-Menten constant (Kmn) for each SHP2 construct were performed and yielded the following values: SHP2-WT, Km=60 μM; SHP2-E76K, Km=20 μM; SHP2cat, Km=20 μM. Relative maximum rates (Vmax) of the DiFMUP reactions were as follows: SHP2-WT, Vmax=871 AFU/min; SHP2-E76K, Vmax, =2730 AFU/min; SHP2cat, Vmax=2912 AFU/min. IC50 values for each compound were determined from initial rates in 10-point dose-response assays using DiFMUP at a concentration corresponding to its Km value for the respective SHP2 construct.
(§2) SHP2 inhibitors were tested at room temperature (RT) in a 384-well plate format standard phosphatase fluorescence intensity assay using DiFMUP (Invitrogen/Thermo Fisher Scientific, Carlsbad, CA) as a substrate and a total reaction volume of 25 μL. SHP2 inhibitors or vehicle (DMSO) were spotted in triplicate into a black Greiner FLUOTRAC™ 200 384-well microplate (#781076, Greiner) for a 10-point dose-response assay using an Echo®555 Liquid Handler (Labcyte, Inc., San Jose, CA). PTP working solutions were prepared at a 0.625 nM concentration (for a final concentration of 0.5 nM) in buffer containing 50 mM Bis-Tris pH 6.0, 50 mM NaCl, 5 mM DTT, and 0.01% Tween® 20. Prior to the assay, a dually phosphorylated insulin receptor substrate 1 (IRS-1) peptide [625 nM (500 nMfinal) (30)] was added to full-length WT SHP2 working solutions and incubated for 20 min. DiFMUP working solutions at 5× final concentration were prepared in 50 mM Bis-Tris pH 6.0, 50 mMNaCl, and 0.01% Tween 20. 20 μL of PTP working solution was dispensed into the microplate and incubated with inhibitor for 20 min at RT. […] The reaction was initiated by addition of 5 μL DiFMUP working solutions. Fluorescence intensity was measured in kinetic mode (every minute for 7 or 10 min) using a Tecan Spark® Multimode Microplate Reader (Tecan, Groedig, Austria) with an excitation wavelength of 360 nm and an emission wavelength of 460 nm. The initial rates were determined from the linear progression curves of the PTP reaction. The nonenzymatic hydrolysis of the substrate was corrected by using a control without addition of enzyme. IC50 values were calculated from the corrected initial rates by nonlinear regression using the program GraphPad Prism (GraphPad Software, Inc., San Diego, CA) Version 8. Dose-response inhibition assays of SHP2cat using the substrate OMFP were performed similarly as described above for DiFMUP. OMFP was used at a concentration corresponding to its Km value for SHP2cat (50 μM final). Fluorescence intensity was measured in kinetic mode (every minute for 10 min) using a Tecan Spark Multimode Microplate Reader with an excitation wavelength of 485 nm and an emission wavelength of 535 nm. Initial rates were determined and IC50 vales calculated as described above.

[2] = molecular target: full-length SHP2 wild-type (SHP2-WT) (Homo sapiens (Human), UniProt Q06124); assay: DiFMUP fluorescence intensity phosphatase inhibition assay, SHP2-WT activated with IRS-1 peptide; details: DiFMUP at Km (60 μM), IRS-1 peptide activated
Source text: as §1, §2

[3] = molecular target: SHP2 catalytic domain (SHP2cat; residues 248-527) (Homo sapiens (Human), UniProt Q06124); assay: DiFMUP fluorescence intensity phosphatase inhibition assay, SHP2cat; details: DiFMUP at Km (20 μM); read-out: SHP2cat IC50
Source text: as §1, §2

full-length SHP2-E76K oncogenic mutant, sequence (Q06124 whole entry E76K, the tested form may be a part): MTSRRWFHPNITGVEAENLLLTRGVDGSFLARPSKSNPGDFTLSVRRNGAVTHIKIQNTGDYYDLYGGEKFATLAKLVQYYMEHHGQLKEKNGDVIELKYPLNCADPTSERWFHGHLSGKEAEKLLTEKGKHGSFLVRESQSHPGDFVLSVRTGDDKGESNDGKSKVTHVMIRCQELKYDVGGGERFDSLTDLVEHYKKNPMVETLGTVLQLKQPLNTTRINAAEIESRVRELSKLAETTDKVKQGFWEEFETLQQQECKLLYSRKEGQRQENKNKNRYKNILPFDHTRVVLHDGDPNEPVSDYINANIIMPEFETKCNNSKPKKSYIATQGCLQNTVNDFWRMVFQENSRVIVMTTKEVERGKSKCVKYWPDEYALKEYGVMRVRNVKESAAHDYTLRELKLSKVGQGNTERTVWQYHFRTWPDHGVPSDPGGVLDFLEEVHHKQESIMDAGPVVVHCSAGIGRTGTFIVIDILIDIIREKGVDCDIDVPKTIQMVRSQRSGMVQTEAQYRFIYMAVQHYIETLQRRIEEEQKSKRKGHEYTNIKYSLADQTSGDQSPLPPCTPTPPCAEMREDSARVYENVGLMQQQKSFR
SHP2 catalytic domain (SHP2cat; residues 248-527), sequence (Q06124 248-527): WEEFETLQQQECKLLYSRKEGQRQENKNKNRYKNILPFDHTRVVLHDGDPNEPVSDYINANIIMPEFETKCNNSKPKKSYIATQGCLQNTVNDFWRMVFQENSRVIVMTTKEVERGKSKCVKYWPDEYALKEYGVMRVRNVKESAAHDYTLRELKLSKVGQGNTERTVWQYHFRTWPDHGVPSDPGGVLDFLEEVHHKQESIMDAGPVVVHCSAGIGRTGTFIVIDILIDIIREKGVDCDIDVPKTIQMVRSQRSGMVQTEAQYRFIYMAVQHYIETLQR

An IC50 [1] of 1 to 20 µM, an IC50 [2] of 1 to 20 µM and an IC50 [3] of 1 to 20 µM were found for `O=C1/C(=C/c2ccc(-c3ccc(O)c(-c4nn[nH]n4)c3)o2)Sc2ccccc21` [#04, (Z)-2-((5-(4-Hydroxy-3-(2H-tetrazol-5-yl)phenyl)furan-2-yl)methylene)benzo[b]thiophen-3(2H)-one] in this work.

An IC50 [1] of 1 to 20 µM, an IC50 [2] of 20 to 100 µM and an IC50 [3] of 1 to 20 µM were found for `O=C1CCC/C1=C\c1ccc(-c2ccc(O)c(C(=O)O)c2)o1` [#06, 2-Hydroxy-5-(5-((2-oxocyclopentylidene)methyl)furan-2-yl)benzoic acid] in this work.

An IC50 [1] of 1 to 20 µM, an IC50 [2] of 1 to 20 µM and an IC50 [3] of 1 to 20 µM were found for `O=C(O)c1cc(-c2ccc(/C=C3\Oc4ccccc4C3=O)o2)ccc1O` [#07, (Z)-2-Hydroxy-5-(5-((3-oxobenzofuran-2(3H)-ylidene)methyl)furan-2-yl)benzoic acid] in this work.

An IC50 [1] of 1 to 20 µM, an IC50 [2] of 1 to 20 µM and an IC50 [3] of 1 to 20 µM were found for `Nc1cccc(NC(=O)c2cc(-c3ccc(/C=C4\Sc5ccccc5C4=O)o3)ccc2O)c1` [#08, (Z)—N-(3-aminophenyl)-2-hydroxy-5-(5-((3-oxobenzo[b]thiophen-2(3H)-ylidene)methyl)furan-2-yl)benzamide] in this work.

An IC50 [1] of 1 to 20 µM, an IC50 [2] of 1 to 20 µM and an IC50 [3] of 1 to 20 µM were found for `O=C(O)c1cc(-c2ccc(/C=C3\Cc4ccccc4C3=O)o2)ccc1O` [#09, 2-Hydroxy-5-(5-((1-oxo-1,3-dihydro-2H-inden-2-ylidene)methyl)furan-2-yl)benzoic acid] in this work.

An IC50 [1] of 1 to 20 µM, an IC50 [2] of 1 to 20 µM and an IC50 [3] of 1 to 20 µM were found for `O=C(NNc1ccccc1)c1cc(-c2ccc(/C=C3\Sc4ccccc4C3=O)o2)ccc1O` [#11, (Z)-2-Hydroxy-5-(5-((3-oxobenzo[b]thiophen-2(3H)-ylidene)methyl)furan-2-yl)-N′-phenylbenzohydrazide] in this work.

An IC50 [1] of 1 to 20 µM and an IC50 [2] of 20 to 100 µM were found for `CC(C)NC(=O)c1cc(-c2ccc(/C=C3\Sc4ccccc4C3=O)o2)ccc1O` [#13, (Z)-2-Hydroxy-N-isopropyl-5-(5-((3-oxobenzo[b]thiophen-2(3H)-ylidene)methyl)furan-2-yl)benzamide] in this work.

An IC50 [1] of 20 to 100 µM and an IC50 [2] of 20 to 100 µM were found for `O=C1CCCC/C1=C\c1ccc(-c2ccc(O)c(C(=O)O)c2)o1` [#14, 2-Hydroxy-5-(5-((2-oxocyclohexylidene)methyl)furan-2-yl)benzoic acid] in this work.

An IC50 [1] of 20 to 100 µM and an IC50 [2] of 20 to 100 µM were found for `O=C(Nc1ccccc1)c1cccc(-c2ccc(/C=C3\Sc4ccccc4C3=O)o2)c1` [#15, (Z)-3-(5-((3-Oxobenzo[b]thiophen-2(3H)-ylidene)methyl)furan-2-yl)-N-phenylbenzamide] in this work.

An IC50 [1] of 20 to 100 µM and an IC50 [2] of no less than 100 µM were found for `O=C(NCc1ccccc1)c1cccc(-c2ccc(/C=C3\Sc4ccccc4C3=O)o2)c1` [#16, (Z)—N-Benzyl-3-(5-((3-oxobenzo[b]thiophen-2(3H)-ylidene)methyl)furan-2-yl)benzamide] in this work.

An IC50 [1] of 20 to 100 µM and an IC50 [2] of no less than 100 µM were found for `O=C1/C(=C/c2ccc(-c3ccc(O)cc3)o2)Sc2ccccc21` [#17, (Z)-2-((5-(4-Hydroxyphenyl)furan-2-yl)methylene)benzo[b]thiophen-3(2H)-one] in this work.

An IC50 [1] of 20 to 100 µM and an IC50 [2] of 20 to 100 µM were found for `COc1ccc(-c2ccc(/C=C3\Sc4ccccc4C3=O)o2)cc1C(=O)Nc1ccccc1` [#18, (Z)-2-Methoxy-5-(5-((3-oxobenzo[b]thiophen-2(3H)-ylidene)methyl)furan-2-yl)-N-phenylbenzamide] in this work.

An IC50 [1] of 20 to 100 µM and an IC50 [2] of no less than 100 µM were found for `O=C1/C(=C/c2ccc(-c3ccc(O)c(C(=O)N4CCNCC4)c3)o2)Sc2ccccc21` [#19, (Z)-2-((5-(4-Hydroxy-3-(piperazine-1-carbonyl)phenyl)furan-2-yl)methylene)benzo[b]thiophen-3(2H)-one] in this work.

An IC50 [1] of no less than 100 µM and an IC50 [2] of no less than 100 µM were found for `O=C(Nc1ccccc1)c1cc(-c2ccco2)ccc1O` [#21, 5-(Furan-2-yl)-2-hydroxy-N-phenylbenzamide] in this work.

An IC50 [1] of no less than 100 µM and an IC50 [2] of no less than 100 µM were found for `O=C(NCCO)c1cc(-c2ccc(/C=C3\Sc4ccccc4C3=O)o2)ccc1O` [#22, (Z)-2-Hydroxy-N-(2-hydroxyethyl)-5-(5-((3-oxobenzo[b]thiophen-2(3H)-ylidene)methyl)furan-2-yl)benzamide] in this work.

An IC50 [1] of no less than 100 µM and an IC50 [2] of no less than 100 µM were found for `CN1CCN(C(=O)c2cc(-c3ccc(/C=C4\Sc5ccccc5C4=O)o3)ccc2O)CC1` [#23, (Z)-2-((5-(4-Hydroxy-3-(4-methylpiperazine-1-carbonyl)phenyl)furan-2-yl)methylene)benzo[b]thiophen-3(2H)-one] in this work.

An IC50 [1] of no less than 100 µM and an IC50 [2] of no less than 100 µM were found for `O=C(Nc1ccccc1)c1cc(-c2ccc(/C=C3\Sc4ccccc4C3=O)o2)ccc1F` [#24, (Z)-2-Fluoro-5-(5-((3-oxobenzo[b]thiophen-2(3H)-ylidene)methyl)furan-2-yl)-N-phenylbenzamide] in this work.

An IC50 [1] of no less than 100 µM and an IC50 [2] of no less than 100 µM were found for `O=C1/C(=C/c2ccc(-c3ccccc3)o2)Sc2ccccc21` [#25, (Z)-2-((5-phenylfuran-2-yl)methylene)benzo[b]thiophen-3(2H)-one] in this work.

An IC50 [1] of 1 to 20 µM and an IC50 [2] of 1 to 20 µM were found for `CC(C)NC(=O)c1cc(-c2ccc(/C=C3\Oc4ccccc4C3=O)o2)ccc1O` [#26] in this work.

An IC50 [1] of 1 to 20 µM and an IC50 [2] of 1 to 20 µM were found for `C/C=C1\CC/C(=C\c2ccc(-c3ccc(O)c(C(=O)O)c3)o2)C1=O` [#27] in this work.

An IC50 [1] of 1 to 20 µM and an IC50 [2] of 1 to 20 µM were found for `O=C(O)c1ccc(-c2ccc(/C=C3\Sc4ccccc4C3=O)o2)cc1` [#28] in this work.

An IC50 [1] of 1 to 20 µM and an IC50 [2] of 20 to 100 µM were found for `O=C(Nc1ccccc1)c1cc(F)cc(-c2ccc(/C=C3\Sc4ccccc4C3=O)o2)c1` [#29] in this work.

An IC50 [1] of 1 to 20 µM and an IC50 [2] of 1 to 20 µM were found for `O=C(O)c1cccc(-c2cccc(/C=C3\Sc4ccccc4C3=O)c2)c1` [#30] in this work.

An IC50 [1] of 1 to 20 µM and an IC50 [2] of 1 to 20 µM were found for `O=C(O)c1cccc(-c2ccc(/C=C3\Sc4ccccc4C3=O)o2)c1` [#31] in this work.

An IC50 [1] of 1 to 20 µM and an IC50 [2] of 20 to 100 µM were found for `O=C(O)c1cc(-c2ccc(/C=C3\Sc4ccccc4C3=O)o2)ccc1F` [#32] in this work.

An IC50 [1] of 1 to 20 µM and an IC50 [2] of 20 to 100 µM were found for `COc1cccc(NC(=O)c2cccc(-c3ccc(/C=C4\Sc5ccccc5C4=O)o3)c2)c1` [#33] in this work.

An IC50 [1] of 1 to 20 µM and an IC50 [2] of 20 to 100 µM were found for `O=C(O)c1cccc(-c2ccc(/C=C3\Cc4ccccc4C3=O)o2)c1` [#34] in this work.

An IC50 [1] of 1 to 20 µM and an IC50 [2] of 20 to 100 µM were found for `COc1ccc(-c2ccc(/C=C3\Sc4ccccc4C3=O)o2)cc1C(=O)O` [#35] in this work.

An IC50 [1] of 20 to 100 µM and an IC50 [2] of 20 to 100 µM were found for `O=C1CCC/C1=C\c1ccc(-c2cccc(C(=O)O)c2)o1` [#36] in this work.

An IC50 [1] of 20 to 100 µM and an IC50 [2] of 20 to 100 µM were found for `O=C(/C=C/c1ccc(-c2ccc(O)c(C(=O)O)c2)o1)c1ccccc1` [#37] in this work.

An IC50 [1] of 20 to 100 µM and an IC50 [2] of no less than 100 µM were found for `O=C(Nc1ccc2ccccc2n1)c1cccc(-c2ccc(/C=C3\Sc4ccccc4C3=O)o2)c1` [#38] in this work.

An IC50 [1] of 20 to 100 µM and an IC50 [2] of 20 to 100 µM were found for `O=C1NC(=O)/C(=C/c2ccc(-c3cccc(C(=O)Nc4ccccc4)c3)o2)S1` [#39] in this work.

An IC50 [1] of no more than 1 µM and an IC50 [2] of 1 to 20 µM were found for `O=C1/C(=C/c2ccc(-c3ccc(O)c(C(=O)O)c3)o2)CC/C1=C\c1ccc(-c2ccc(O)c(C(=O)O)c2)o1` [#44] in this work.

An IC50 [1] of 1 to 20 µM and an IC50 [2] of 1 to 20 µM were found for `O=C1/C(=C/c2ccc(O)c(C(=O)O)c2)CC/C1=C\c1ccc(O)c(C(=O)O)c1` [#47] in this work.

An IC50 [1] of 20 to 100 µM and an IC50 [2] of 20 to 100 µM were found for `O=C(/C=C/c1ccc(Br)o1)c1cccc(C(=O)/C=C/c2ccc(Br)o2)c1` [#48] in this work.
